Experimental data taken from paper PMC4542541, “Flexibility and extracellular opening determine the interaction between ligands and insect sulfakinin receptors” (Scientific Reports, 2015).
“Also recorded” adds a separate entry of the source.

Key:
TcSKR2 [1] = test: Receptor activation bioassay, CRE-luciferase reporter in Sf9-TcSKR2 cells; format: cell-based, Tribolium castaneum; set-up: key to peptide marked active on TcSKR2: *: A peptide is active on the sulfakinin receptor (SKR); settings: for relative activity (% nsSK) TcSKR2: peptide 10 μM, Sf9-TcSKR2 cells transiently transfected with pGL4.29[luc2P/CRE/Hygro], 5 h at 27 °C, Bright-Glo luminescence, activity related to nsSK, mean ± SEM, at least two biological replicates, SEM; for peptide marked active on TcSKR2: 10 μM, one-way ANOVA with Dunnett's posttest vs nsSK and medium control; for activity on TcSKR2 in words: compared to parental peptide nsSK, Sf9 cell-based reporter
Experimental: (§1) Sf9 cells (Spodoptera frugiperda) and Sf9-TcSKR1 and Sf9-TcSKR2 cells generated previously[21] were routinely cultured in SF-900™ II SFM medium (Life Technologies, Merelbeke, Belgium) at 27 °C in darkness. The medium for Sf9-TcSKR1 and Sf9-TcSKR2 was supplemented with 20 μg/ml of puromycin (Life Technologies, Merelbeke, Belgium) to maintain the stable expression of TcSKRs.
(§2) The reporter vector pGL4.29[luc2P/CRE/Hygro] (CRE; Promega, Leiden, the Netherlands) was applied here and it has a cAMP (cyclic adenosine 3′, 5′-cyclic monophosphate) response element upstream the reporter gene luciferase, through which the cAMP signaling regulates the transcription of luciferase proportionally. Thus, the readout of the luminescence corresponds to the extent to which the expressed TcSKR is activated in Sf9 cells. The SK-related peptides (Table 1) were tested at concentrations of 0.1, 1 and 10 μM.
(§3) Sf9, Sf9-TcSKR1 and Sf9-TcSKR2 cells were all transiently transfected with pGL4.29[luc2P/CRE/Hygro] using ESCORT™ IV transfection reagent (Sigma-Aldrich, Bornem, Belgium) following the manufacturer’s instruction. Medium was supplemented with 200 μg/ml hygromycin (Life Technologies, Merelbeke, Belgium) 24 h post-transfection. The transient cells (Sf9-CRE, Sf9-TcSKR1-CRE, Sf9-TcSKR2-CRE) were seeded at 20,000 cells per well in white 96-well plates (Greiner Bio-One, Frickenhausen, Germany). After 12 h, cells had attached to the well bottom and the medium was replaced by fresh medium containing peptide of designated concentrations. Each concentration was tested in three replicates and the entire assay was repeated at least twice. Two kinds of negative control were included. […] Second, Sf9-CRE cells were used as a negative control to eliminate the potential internal factors that were activated by peptide samples. Cells were incubated with a peptide for 5 h at 27 °C and then Bright-Glo™ luciferase assay (Promega, Leiden, the Netherlands) was carried out according to the manufacturer’s instruction. Light emission, resulting from the luciferase activity was measured for 10 seconds per well using an Infinite® 200 PRO microplate reader (Tecan, Mechelen, Belgium).
(§4) In the receptor activation bioassay, the activity of a peptide on TcSKR was represented by the increased luminescence units, calculated with the following formula: activitypeptide = (luminescencepeptide – luminescencemedium)/luminescencemedium × 100. The activity of SK-related peptide was compared to that of nsSK and medium control by one-way analysis of variance with the Dunnett’s posttest in GraphPad Prism version 5.00 (GraphPad Software, La Jolla, CA). The activity of a SK-related peptide was also related to the activity of nsSK as a percentage value, calculated with the formula: relative activity of peptide (% nsSK) = activitypeptide/activitynsSK × 100.

TcSKR1 = test: Receptor activation bioassay, CRE-luciferase reporter in Sf9-TcSKR1 cells; format: cell-based, Tribolium castaneum; set-up: key to peptide marked active on TcSKR1: *: A peptide is active on the sulfakinin receptor (SKR); settings: for relative activity (% nsSK) TcSKR1: peptide 10 μM, Sf9-TcSKR1 cells transiently transfected with pGL4.29[luc2P/CRE/Hygro], 5 h at 27 °C, Bright-Glo luminescence, activity related to nsSK, mean ± SEM, at least two biological replicates, SEM; for peptide marked active on TcSKR1: 10 μM, one-way ANOVA with Dunnett's posttest vs nsSK and medium control; for activity on TcSKR1 in words: compared to parental peptide nsSK, Sf9 cell-based reporter
Experimental: as §1, §2, §3, §4

TcSKR2 [2] = settings: previous experiments; cited from earlier work
Text: As a satiety factor, insect SK signaling provides insights into the development of new pest control strategies. […] This lead to a hypothesis that sSK and nsSK interact with the two TcSKRs differently. Therefore, understanding the interaction of ligand and receptor will promote the ...

Substance	relative activity (% nsSK) TcSKR2 (TcSKR2 [1])	relative activity (% nsSK) TcSKR1 (TcSKR1)	peptide marked active on TcSKR2 (TcSKR2 [1])	activity on TcSKR2 in words (TcSKR2 [1])	peptide marked active on TcSKR1 (TcSKR1)	activity on TcSKR1 in words (TcSKR1)	potency of sSK relative to nsSK to activate TcSKR2 (TcSKR2 [2])
GHMRF-NH2 [Peptide 2053, truncated nsSK, GHMRF-NH2]	−4.8 ± 0.1 % nsSK	0.6 ± 0.1 % nsSK					
EADY(SO3H)GHNleRF-NH2 [Peptide 1591-1, sulfated SK-related peptide EADY(SO3H)GHNleRF-NH2]	113.7 ± 60.5 % nsSK	82.6 ± 2.0 % nsSK	*	much more active than nsSK; also recorded: retention of activity	*	retention of activity	
FDDAGHMRF-NH2 [Peptide 2008, alanine-substituted nsSK, …-NH2]	21.5 ± 10.7 % nsSK	5.3 ± 1.5 % nsSK		inactive		inactive	
HMRF-NH2 [Peptide 2052, truncated nsSK, HMRF-NH2]	1.8 ± 0.1 % nsSK	6.8 ± 0.2 % nsSK					
DDYGHMRF-NH2 [Peptide 2009, truncated nsSK, DDYGHMRF-NH2]	1.2 ± 13.7 % nsSK	7.8 ± 11.8 % nsSK					
DYGHMRF-NH2 [Peptide 2010, truncated nsSK, DYGHMRF-NH2]	8.6 ± 9.1 % nsSK	28.1 ± 15.6 % nsSK					
FDDY(SO3H)GHMRF-NH2 [sSK, sulfated sulfakinin peptide FDDY(SO3H)GHMRF-NH2]							1,000–10,000 times
SDDY(SO3H)GHMRF-NH2 [Peptide 1835, sulfated SK-related peptide SDDY(SO3H)GHMRF-NH2]	645.7 ± 126.6 % nsSK	76.5 ± 7.6 % nsSK	*	much more active than nsSK; also recorded: retention of activity	*	retention of activity	
DDY(SO3H)GHMRF-NH2 [Peptide 1658, sulfated SK-related peptide DDY(SO3H)GHMRF-NH2]	516.8 ± 50.6 % nsSK	64.8 ± 8.4 % nsSK	*	much more active than nsSK; also recorded: retention of activity	*	retention of activity	
FDDYGHARF-NH2 [Peptide 2005, alanine-substituted nsSK, …-NH2]	11.9 ± 2.7 % nsSK	−0.8 ± 4.4 % nsSK		inactive		inactive	
FDDYAHMRF-NH2 [Peptide 2007, alanine-substituted nsSK, …-NH2]	8.5 ± 5.3 % nsSK	55.0 ± 7.1 % nsSK				kept the activity on TcSKR1 to some extent	
FDDYGHMRF-NH2 [nsSK, nonsulfated sulfakinin peptide …-NH2, parental peptide of the series, reference compound]	100.0 ± 0.0 % nsSK	100.0 ± 0.0 % nsSK	*		*		
YGHMRF-NH2 [Peptide 2011, truncated nsSK, YGHMRF-NH2]	11.7 ± 13.5 % nsSK	2.8 ± 2.5 % nsSK					
FDDYGHMAF-NH2 [Peptide 2004, alanine-substituted nsSK, …-NH2]	18.7 ± 10.2 % nsSK	58.0 ± 22.0 % nsSK		inactive		inactive	
FDDYGHMRA-NH2 [Peptide 2003, alanine-substituted nsSK, …-NH2]	−3.5 ± 5.9 % nsSK	−2.0 ± 3.4 % nsSK		inactive		inactive	
FDDYGAMRF-NH2 [Peptide 2006, alanine-substituted nsSK, …-NH2]	4.0 ± 9.9 % nsSK	0.5 ± 0.7 % nsSK		inactive		inactive	
